Reference: paper PMC7411887, “New Paracyclophanylthiazoles with Anti-Leukemia Activity: Design, Synthesis, Molecular Docking, and Mechanistic Studies” (Molecules, 2020)
“Also recorded” adds a separate entry of the source.

How the values were obtained:
caspase-3 = assay: Caspase-3 ELISA on leukemia SR cell line; format: cell-based, human; conditions: for Caspase 3 Conc: ± SD
Experimental: Since caspase-3 is important for spreading the apoptotic signal after exposure to antimitotic compounds [38], the effect of compound 3a on the caspase-3 activated enzyme was evaluated using ELISA and replicated three times. The reference compound and 3a were incubated for 30 min at room temperature in the dark on the leukemia SR cell line. […]
color. Add 50 μL of Stop solution into each well and mix thoroughly. The color changes […]
9. Read the O.D. absorbance at 450 nm in a micro-plate reader immediately after adding the
Caspase assay is performed according to the following procedures:
1. Allowing all reagents to reach room temperature before use. Gently mix all liquid reagents prior to use (Note: A standard curve must be run with each assay).
2. Determine the number of 8-well strips needed for the assay. Insert these in the frame(s) for current use. (Re-bag extra strips and frame. Store these in the refrigerator for future […]
3. Add 100 μL of the Standard Diluent Buffer to the zero standard wells. Well(s) reserved for chromogen blank should be left empty.
4. Add 100 μL of standards and controls or diluted samples to the appropriate microtiter wells. The sample dilution chosen should be optimized for each experimental system.
Tap gently on side of plate to mix.
5. Cover wells with plate cover and incubate for 2 hours at room temperature.
6. Thoroughly aspirate or decant solution from wells and discard the liquid. Wash wells 4 times. See Directions for Washing.
7. Pipette 100 μL of Caspase-3 (Active) Detection Antibody solution into each well except the chromogen blank(s). Tap gently on the side of the plate to mix.
8. Cover plate with plate cover and incubate for 1 h at room temperature.
9. Thoroughly aspirate or decant solution from wells and discard the liquid.
10. Wash wells 4 times. See Directions for Washing.
11. Add 100 μL Anti-Rabbit IgG HRP Working Solution to each well except the chromogen blank(s). Prepare the working dilution as described in Preparing IgG HRP.
12. Cover wells with the plate cover and incubate for 30 minutes at room temperature.
13. Thoroughly aspirate or decant solution from wells and discard the liquid. Wash wells 4
14. Add 100 μL of Stabilized Chromogen to each well. The liquid in the wells will begin to
15. Incubate for 30 min at room temperature and in the dark. […]
with aluminum foil or metalized mylar. The incubation time for chromogen substrate is often determined by the microtiter plate reader used. Many plate readers have the capacity to record a maximum optical density (O.D.) of 2.0. The O.D. values should be monitored and the substrate reaction stopped before the O.D. of the positive wells exceeds the limits of the instrument. The O.D. values at 450 nm can only be read after the Stop Solution has been added to each well. If using a reader that records only to 2.0 O.D., […]
16. Add 100 μL of Stop Solution to each well. Tap side of plate gently to mix. The solution in the wells should change from blue to yellow.
17. Read the absorbance of each well at 450 nm having blanked the plate reader against a chromogen blank composed of 100 μL each of Stabilized Chromogen and Stop Solution.
Read the plate within 2 hours after adding the Stop Solution.
18. Use a curve fitting software to generate the standard curve. A four-parameter algorithm provides the best standard curve fit.
19. Read the concentrations for unknown samples and controls from the standard curve.
Multiply value(s) obtained for sample(s) by the appropriate dilution factor to correct for the dilution in step 3. […]

leukemia SR cells = assay: Cell cycle analysis, propidium iodide flow cytometry; conditions: for DNA Content % %G0-G1 / DNA Content % %G2-M / DNA Content % %Pre G1 / DNA Content % %S: at IC50, 24 h
CCRF-CEM = assay: NCI five-dose assay; format: cell-based; conditions: Homo sapiens, Leukemia CCRF-CEM
K-562 = assay: NCI five-dose assay; format: cell-based; conditions: Leukemia K-562
RPMI-8226 = assay: NCI five-dose assay; format: cell-based; conditions: Leukemia RPMI-8226
SR = assay: NCI five-dose assay; format: cell-based; conditions: Leukemia SR
A549/ATCC = assay: NCI five-dose assay; format: cell-based; conditions: Non-Small-Cell Lung Cancer A549/ATCC
HOP-62 = assay: NCI five-dose assay; format: cell-based, human; conditions: Non-Small-Cell Lung Cancer HOP-62
HCT-116 = assay: NCI five-dose assay; format: cell-based; conditions: Colon Cancer HCT-116
SW-620 = assay: NCI five-dose assay; format: cell-based, human; conditions: Colon Cancer SW-620
SK-MEL-28 = assay: NCI five-dose assay; format: cell-based; conditions: Melanoma SK-MEL-28
SK-OV-3 = assay: NCI five-dose assay; format: cell-based; conditions: Ovarian Cancer SK-OV-3
UO-31 = assay: NCI five-dose assay; format: cell-based; conditions: Renal Cancer UO-31
T-47D = assay: NCI five-dose assay; format: cell-based; conditions: Breast Cancer T-47D
MDA-MB-468 = assay: NCI five-dose assay
[1] = Homo sapiens, read-out: GI50 Concentration/Cell Line
[2] = Homo sapiens, read-out: LC50 (the source's name)

COc1cc2c(c(OC)c1OC)-c1ccc(OC)c(=O)cc1[C@@H](NC(C)=O)CC2 [Colchicine, colchicine, reference compound]
level of active caspase-3 (caspase-3): 428.9 ng/mL | Caspase 3 Conc (caspase-3): 428.9 ± 5.47 pg/mL | DNA Content % Comment (leukemia SR cells): cell growth arrest (G2/M) | DNA Content % %G0-G1 (leukemia SR cells): 26.58% | DNA Content % %G2-M (leukemia SR cells): 48.15 ± 1.000 % | DNA Content % %Pre G1 (leukemia SR cells): 36.24% | DNA Content % %S (leukemia SR cells): 25.27%

COC(=O)C=C1SC(=NNC(=O)c2cc3ccc2CCc2ccc(cc2)CC3)N(c2ccccc2)C1=O [Compound 3a]
LC50 (CCRF-CEM): > 100 µM | GI50 (CCRF-CEM; read-out: GI50 Concentration/Cell Line): 2.71 µM | GI50 (K-562; Homo sapiens, K562, read-out: GI50 Concentration/Cell Line): 3.15 µM | CC50 (K-562; Homo sapiens, K562, read-out: LC50 (the source's name)): > 100 µM | TGI Concentration/Cell Line (K-562): >100 µM | LC50 (RPMI-8226; Homo sapiens): > 100 µM | GI50 (RPMI-8226; [1]): 2.15 µM | TGI Concentration/Cell Line (RPMI-8226): 5.69 µM | GI50 (SR; [1]): 2.46 µM | CC50 (SR; [2]): > 100 µM | TGI Concentration/Cell Line (SR): >100 µM | GI50 (A549/ATCC; [1]): 2.83 µM | CC50 (A549/ATCC; [2]): > 100 µM | TGI Concentration/Cell Line (A549/ATCC): 8.00 µM | GI50 (HOP-62; [1]): 2.68 µM | TGI Concentration/Cell Line (HOP-62): 6.97 µM | TGI Concentration/Cell Line (HCT-116): 3.66 µM | LC50 (HCT-116; Homo sapiens): 7.51 µM | GI50 (HCT-116; [1]): 1.79 µM | TGI Concentration/Cell Line (SW-620): 3.66 µM | LC50 (concentration killing 50% of cells) (SW-620; Homo sapiens): 7.23 µM | GI50 (SW-620; [1]): 1.85 µM | LC50 (concentration causing 50% net cell kill) (SK-MEL-28; Homo sapiens): > 100 µM | GI50 (SK-MEL-28; [1]): 2.97 µM | TGI Concentration/Cell Line (SK-MEL-28): 9.87 µM | LC50 (NCI lethal concentration, 50% cell kill) (SK-OV-3; Homo sapiens): > 100 µM | GI50 (SK-OV-3; [1]): 3.55 µM | TGI Concentration/Cell Line (SK-OV-3): 7.53 µM | LC50 (UO-31; Homo sapiens): 6.2 µM | GI50 (UO-31; [1]): 1.53 µM | TGI Concentration/Cell Line (UO-31): 3.08 µM | TGI Concentration/Cell Line (T-47D): 3.65 µM | GI50 (T-47D; Homo sapiens, T47D, read-out: GI50 Concentration/Cell Line): 1.54 µM | CC50 (T-47D; Homo sapiens, T47D, read-out: LC50 (the source's name)): 8.68 µM | level of active caspase-3 (caspase-3): 471.2 ng/mL | Caspase 3 Fold Change (caspase-3; relative to control): 8.84 fold | Caspase 3 Conc (caspase-3): 471.2 ± 6.11 pg/mL | TGI Concentration/Cell Line (MDA-MB-468; Breast Cancer MDA-MB-468): 3.74 µM | GI50 (MDA-MB-468; Homo sapiens, MDA-MB-468, read-out: GI50 Concentration/Cell Line): 1.84 µM | CC50 (MDA-MB-468; Homo sapiens, MDA-MB-468, read-out: LC50): 7.61 µM | DNA Content % Comment (leukemia SR cells): significant growth arrest at the G2/M phase; also recorded: cell growth arrest (G2/M) | DNA Content % %G0-G1 (leukemia SR cells): 31.47% | DNA Content % %G2-M (leukemia SR cells): 44.74 ± 0.1747 % | DNA Content % %Pre G1 (leukemia SR cells): 33.71% | DNA Content % %S (leukemia SR cells): 23.79%
